Laboratory results from ChEMBL document CHEMBL1649413, “Structure-activity relationship of 4(5)-aryl-2-amino-1H-imidazoles, N1-substituted 2-aminoimidazoles and imidazo[1,2-a]pyrimidinium salts as inhibitors of biofilm formation by Salmonella typhimurium and Pseudomonas aeruginosa” (J Med Chem, 2011).
Active and inactive are the calls of the source. The calls are words filed in the database; no cut-off is given here.

How the values were obtained:
Salmonella typhimurium [1] = test: Antibiofilm activity in Salmonella Typhimurium ATCC 14028 assessed as inhibition of biofilm formation at 25 degC after 24 hrs; type: functional, organism-based, Salmonella enterica subsp. enterica serovar Typhimurium; details: Salmonella enterica, ATCC 14028, 24 h
Pseudomonas aeruginosa [2] = test: Antimicrobial activity against Pseudomonas aeruginosa assessed as inhibition of planktonic growth at 80 uM at 25 degC after 24 hrs; type: functional, organism-based
Pseudomonas aeruginosa [3] = test: Antibiofilm activity in Pseudomonas aeruginosa assessed as inhibition of biofilm formation at 25 degC after 24 hrs; type: functional, organism-based
Pseudomonas aeruginosa [4] = test: Antimicrobial activity against Pseudomonas aeruginosa assessed as inhibition of planktonic growth at 20 uM at 25 degC after 24 hrs; type: functional, organism-based
Pseudomonas aeruginosa [5] = test: Antimicrobial activity against Pseudomonas aeruginosa assessed as inhibition of planktonic growth at 40 uM at 25 degC after 24 hrs; type: functional, organism-based
Pseudomonas aeruginosa [6] = test: Antimicrobial activity against Pseudomonas aeruginosa assessed as inhibition of planktonic growth at 10 uM at 25 degC after 24 hrs; type: functional, organism-based
Salmonella typhimurium [7] = test: Antimicrobial activity against Salmonella Typhimurium ATCC 14028 assessed as inhibition of planktonic growth at 80 uM at 25 degC after 24 hrs; type: functional, organism-based; details: Salmonella enterica subsp. enterica serovar Typhimurium
Salmonella typhimurium [8] = test: Antimicrobial activity against Salmonella Typhimurium ATCC 14028 assessed as inhibition of planktonic growth at 10 uM at 25 degC after 24 hrs; type: functional, organism-based; details: Salmonella enterica subsp. enterica serovar Typhimurium
Salmonella typhimurium [9] = test: Antimicrobial activity against Salmonella Typhimurium ATCC 14028 assessed as inhibition of planktonic growth at 40 uM at 25 degC after 24 hrs; type: functional, organism-based; details: Salmonella enterica subsp. enterica serovar Typhimurium
Salmonella typhimurium [10] = test: Antimicrobial activity against Salmonella Typhimurium ATCC 14028 assessed as inhibition of planktonic growth at 20 uM at 25 degC after 24 hrs; type: functional, organism-based; details: Salmonella enterica subsp. enterica serovar Typhimurium
Salmonella typhimurium [11] = test: Antimicrobial activity against Salmonella Typhimurium ATCC 14028 assessed as inhibition of planktonic growth at 4 uM at 25 degC after 24 hrs; type: functional, organism-based; details: Salmonella enterica subsp. enterica serovar Typhimurium
Salmonella typhimurium [12] = test: Antimicrobial activity against Salmonella Typhimurium ATCC 14028 assessed as inhibition of planktonic growth at 400 uM at 25 degC after 24 hrs; type: functional, organism-based; details: Salmonella enterica subsp. enterica serovar Typhimurium
Salmonella typhimurium [13] = test: Antibiofilm activity in Salmonella Typhimurium ATCC 14028 assessed as inhibition of biofilm formation at 37 degC after 24 hrs; type: functional, organism-based, Salmonella enterica subsp. enterica serovar Typhimurium; details: Salmonella enterica, ATCC 14028, 24 h
Pseudomonas aeruginosa [14] = test: Antimicrobial activity against Pseudomonas aeruginosa assessed as inhibition of planktonic growth at 5 uM at 25 degC after 24 hrs; type: functional, organism-based
Pseudomonas aeruginosa [15] = test: Antibiofilm activity in Pseudomonas aeruginosa assessed as inhibition of biofilm formation at 37 degC after 24 hrs; type: functional, organism-based
Pseudomonas aeruginosa [16] = test: Antimicrobial activity against Pseudomonas aeruginosa assessed as inhibition of planktonic growth at 20 uM at 37 degC after 24 hrs; type: functional, organism-based
Pseudomonas aeruginosa [17] = test: Antimicrobial activity against Pseudomonas aeruginosa assessed as inhibition of planktonic growth at 100 uM at 37 degC after 24 hrs; type: functional, organism-based
Pseudomonas aeruginosa [18] = test: Antimicrobial activity against Pseudomonas aeruginosa assessed as inhibition of planktonic growth at 100 uM at 25 degC after 24 hrs; type: functional, organism-based
Salmonella typhimurium [19] = test: Antimicrobial activity against Salmonella Typhimurium ATCC 14028 assessed as inhibition of planktonic growth at 150 uM at 37 degC after 24 hrs; type: functional, organism-based; details: Salmonella enterica subsp. enterica serovar Typhimurium
Pseudomonas aeruginosa [20] = test: Antimicrobial activity against Pseudomonas aeruginosa assessed as inhibition of planktonic growth at 40 uM at 37 degC after 24 hrs; type: functional, organism-based
Salmonella typhimurium [21] = test: Antimicrobial activity against Salmonella Typhimurium ATCC 14028 assessed as inhibition of planktonic growth at 100 uM at 37 degC after 24 hrs; type: functional, organism-based; details: Salmonella enterica subsp. enterica serovar Typhimurium
Salmonella typhimurium [22] = test: Antimicrobial activity against Salmonella Typhimurium ATCC 14028 assessed as inhibition of planktonic growth at 150 uM at 25 degC after 24 hrs; type: functional, organism-based; details: Salmonella enterica subsp. enterica serovar Typhimurium
Salmonella typhimurium [23] = test: Antimicrobial activity against Salmonella Typhimurium ATCC 14028 assessed as inhibition of planktonic growth at 250 uM at 37 degC after 24 hrs; type: functional, organism-based; details: Salmonella enterica subsp. enterica serovar Typhimurium
Salmonella typhimurium [24] = test: Antimicrobial activity against Salmonella Typhimurium ATCC 14028 assessed as inhibition of planktonic growth at 400 uM at 37 degC after 24 hrs; type: functional, organism-based; details: Salmonella enterica subsp. enterica serovar Typhimurium
Salmonella typhimurium [25] = test: Antimicrobial activity against Salmonella Typhimurium ATCC 14028 assessed as inhibition of planktonic growth at 200 uM at 25 degC after 24 hrs; type: functional, organism-based; details: Salmonella enterica subsp. enterica serovar Typhimurium
Salmonella typhimurium [26] = test: Antimicrobial activity against Salmonella Typhimurium ATCC 14028 assessed as inhibition of planktonic growth at 50 uM at 37 degC after 24 hrs; type: functional, organism-based; details: Salmonella enterica subsp. enterica serovar Typhimurium
Salmonella typhimurium [27] = test: Antimicrobial activity against Salmonella Typhimurium ATCC 14028 assessed as inhibition of planktonic growth at 25 uM at 37 degC after 24 hrs; type: functional, organism-based; details: Salmonella enterica subsp. enterica serovar Typhimurium

Compound	IC50 (Salmonella typhimurium [1]) [µM]	inhibition (Pseudomonas aeruginosa [2])	IC50 (Pseudomonas aeruginosa [3]) [µM]	inhibition (Pseudomonas aeruginosa [5])	inhibition (Pseudomonas aeruginosa [6])	inhibition (Salmonella typhimurium [7])	inhibition (Salmonella typhimurium [8])	inhibition (Salmonella typhimurium [9])	inhibition (Salmonella typhimurium [10])	inhibition (Salmonella typhimurium [11])	inhibition (Pseudomonas aeruginosa [14])	also measured
Nc1ncc(-c2ccccc2)n1C1CCC1	116	inactive	19.9	inactive								inhibition (Pseudomonas aeruginosa [4]): inactive
CCCCCCCCCCCCCCn1c(-c2ccccc2)cnc1N	8.7	inactive	9.8	inactive	inactive	inactive	inactive	inactive	inactive			
Nc1nc(-c2ccc(F)cc2)c(-c2ccc(F)cc2)[nH]1	18.2					Active	inactive	Active	Active	inactive		
Nc1ncc(-c2ccc(Cl)cc2)[nH]1	16		3.5					inactive		inactive	inactive	inhibition (Salmonella typhimurium [12]): Active; IC50 (Salmonella typhimurium [13]): 30.1 µM; IC50 (Pseudomonas aeruginosa [15]): 29.3 µM; inhibition (Pseudomonas aeruginosa [16]): inactive
CCn1c(-c2ccc(-c3ccccc3)cc2)cnc1N	14		95.1			Active	inactive	Active	inactive	inactive		
Nc1ncc(-c2ccccc2)[nH]1	130		72.6					inactive		inactive		inhibition (Pseudomonas aeruginosa [17]): inactive; inhibition (Pseudomonas aeruginosa [18]): inactive; inhibition (Salmonella typhimurium [12]): Active; inhibition (Salmonella typhimurium [19]): inactive; IC50 (Salmonella typhimurium [13]): 146 µM; inhibition (Pseudomonas aeruginosa [20]): inactive; inhibition (Salmonella typhimurium [21]): inactive; inhibition (Salmonella typhimurium [22]): inactive; IC50 (Pseudomonas aeruginosa [15]): 22.7 µM; inhibition (Salmonella typhimurium [23]): inactive; inhibition (Pseudomonas aeruginosa [16]): inactive; inhibition (Salmonella typhimurium [24]): inactive
Nc1ncc(-c2ccccc2)n1C1CCCCC1	85.2	inactive	4.6	inactive							inactive	
Nc1ncc(-c2ccccc2)n1C1CCCCCC1	26.9	inactive	14.2	inactive	inactive							
Nc1ncc(-c2ccccc2)n1C1CCCCCCC1	40.5	inactive	4.5	inactive		Active	inactive		inactive		inactive	
CCCCCCCCCCCCn1c(-c2ccccc2)cnc1N	7.1	inactive	12.8	inactive	inactive		Active		Active	inactive		
Nc1ncc(-c2ccc(F)cc2)[nH]1	84.4		15	inactive	inactive			Active		inactive		inhibition (Pseudomonas aeruginosa [17]): inactive; IC50 (Salmonella typhimurium [13]): 238 µM; inhibition (Pseudomonas aeruginosa [20]): inactive; IC50 (Pseudomonas aeruginosa [15]): 47.6 µM; inhibition (Salmonella typhimurium [25]): Active; inhibition (Pseudomonas aeruginosa [16]): inactive
CCCCCn1c(-c2ccccc2)cnc1N	48.4	inactive	2.1	inactive	inactive	Active	inactive	inactive	inactive	inactive	inactive	
CCCCCCCCCCn1c(-c2ccc(-c3ccccc3)cc2)cnc1N	5.7	inactive	> 400	inactive				inactive	inactive	inactive	inactive	
Cc1ccc(-c2[nH]c(N)nc2-c2ccc(Cl)cc2)cc1	12.9					Active	Active	Active	Active	inactive		
Nc1ncc(-c2ccccc2)n1C1CCCCCCCCCCC1	14.6		> 800			inactive	inactive	inactive				
Nc1ncc(-c2ccc(Cl)cc2)n1C1CCC1	11.6	Active	6	inactive		Active	inactive	Active			inactive	
Nc1nc(-c2ccccc2)c(-c2ccccc2)n1C1CCCCC1	23.9		5	inactive		inactive	inactive	inactive	inactive			inhibition (Pseudomonas aeruginosa [4]): inactive
CCCCCCCCCCCCCCn1c(-c2ccc(Cl)cc2)cnc1N	453	inactive	19.1	inactive							inactive	
Nc1nc(-c2ccc(Cl)cc2)c(-c2ccc(C(F)(F)F)cc2)[nH]1	10.8					Active	Active	Active	Active	inactive		
CCCCCn1c(-c2ccc(Cl)cc2)cnc1N	8		6		inactive		inactive	Active	Active	inactive	inactive	inhibition (Pseudomonas aeruginosa [4]): inactive
CCCCCCCCCn1c(-c2ccc(-c3ccccc3)cc2)cnc1N	16.4		> 400			Active		Active	inactive			
Nc1ncc(-c2ccc(Br)cc2)[nH]1	47.9		3.2	Active	inactive			inactive		inactive	inactive	inhibition (Pseudomonas aeruginosa [17]): Active; inhibition (Salmonella typhimurium [12]): Active; inhibition (Salmonella typhimurium [19]): inactive; IC50 (Salmonella typhimurium [13]): 54.3 µM; inhibition (Pseudomonas aeruginosa [20]): inactive; inhibition (Salmonella typhimurium [21]): inactive; inhibition (Salmonella typhimurium [26]): inactive; IC50 (Pseudomonas aeruginosa [15]): 51.3 µM; inhibition (Pseudomonas aeruginosa [16]): inactive; inhibition (Salmonella typhimurium [27]): inactive
CCn1c(-c2ccc(Cl)cc2)cnc1N	53.2		11.3		inactive	Active	inactive	Active	inactive	inactive		inhibition (Pseudomonas aeruginosa [4]): inactive
Nc1ncc(-c2ccc(-c3ccccc3)cc2)n1C1CCCC1	7.5		353			Active	inactive	Active	Active	inactive		
CCCCCCCCn1c(-c2ccc([N+](=O)[O-])cc2)cnc1N	35.4					Active		Active				
